{
  "source": "the NIST ThermoML archive (doi:10.1021/acs.jced.9b00442)",
  "note": "± gives the expanded uncertainty stated by the source.",
  "data": [
    {"conditions": "343.15 K; 100 kPa; Liquid; Concentric cylinders viscometry", "units": {"viscosity": "mPa·s"}, "values": [
      {"compound": "CC[N+](C)(CCO)CCO.O=S(=O)([N-]S(=O)(=O)C(F)(F)F)C(F)(F)F", "viscosity": "33.4 ± 1.4"}
    ]},
    {"conditions": "343.15 K; 100 kPa; Liquid; Vibrating tube method", "units": {"mass density": "kg/m3"}, "values": [
      {"compound": "C[N+](CCO)(CCO)CCO.O=S(=O)([N-]S(=O)(=O)C(F)(F)F)C(F)(F)F", "mass density": "1526.6 ± 1.2"},
      {"compound": "CC[N+](CCO)(CCO)CCO.O=S(=O)([N-]S(=O)(=O)C(F)(F)F)C(F)(F)F", "mass density": "1490.6 ± 1.2"},
      {"compound": "CCCC[N+](CCO)(CCO)CCO.O=S(=O)([N-]S(=O)(=O)C(F)(F)F)C(F)(F)F", "mass density": "1417.8 ± 1.1"},
      {"compound": "CC[N+](C)(CCO)CCO.O=S(=O)([N-]S(=O)(=O)C(F)(F)F)C(F)(F)F", "mass density": "1475.4 ± 1.2"}
    ]},
    {"conditions": "344.15 K; 100 kPa; Liquid; Vibrating tube method", "units": {"mass density": "kg/m3"}, "values": [
      {"compound": "C[N+](CCO)(CCO)CCO.O=S(=O)([N-]S(=O)(=O)C(F)(F)F)C(F)(F)F", "mass density": "1525.8 ± 1.2"},
      {"compound": "CC[N+](CCO)(CCO)CCO.O=S(=O)([N-]S(=O)(=O)C(F)(F)F)C(F)(F)F", "mass density": "1489.7 ± 1.2"},
      {"compound": "CCCC[N+](CCO)(CCO)CCO.O=S(=O)([N-]S(=O)(=O)C(F)(F)F)C(F)(F)F", "mass density": "1417 ± 1.1"},
      {"compound": "CC[N+](C)(CCO)CCO.O=S(=O)([N-]S(=O)(=O)C(F)(F)F)C(F)(F)F", "mass density": "1474.6 ± 1.2"}
    ]},
    {"conditions": "345.15 K; 100 kPa; Liquid; Vibrating tube method", "units": {"mass density": "kg/m3"}, "values": [
      {"compound": "C[N+](CCO)(CCO)CCO.O=S(=O)([N-]S(=O)(=O)C(F)(F)F)C(F)(F)F", "mass density": "1524.9 ± 1.2"},
      {"compound": "CC[N+](CCO)(CCO)CCO.O=S(=O)([N-]S(=O)(=O)C(F)(F)F)C(F)(F)F", "mass density": "1488.9 ± 1.2"},
      {"compound": "CCCC[N+](CCO)(CCO)CCO.O=S(=O)([N-]S(=O)(=O)C(F)(F)F)C(F)(F)F", "mass density": "1416.1 ± 1.1"},
      {"compound": "CC[N+](C)(CCO)CCO.O=S(=O)([N-]S(=O)(=O)C(F)(F)F)C(F)(F)F", "mass density": "1473.7 ± 1.2"}
    ]},
    {"conditions": "346.15 K; 100 kPa; Liquid; Vibrating tube method", "units": {"mass density": "kg/m3"}, "values": [
      {"compound": "C[N+](CCO)(CCO)CCO.O=S(=O)([N-]S(=O)(=O)C(F)(F)F)C(F)(F)F", "mass density": "1524 ± 1.2"},
      {"compound": "CC[N+](CCO)(CCO)CCO.O=S(=O)([N-]S(=O)(=O)C(F)(F)F)C(F)(F)F", "mass density": "1488 ± 1.2"},
      {"compound": "CCCC[N+](CCO)(CCO)CCO.O=S(=O)([N-]S(=O)(=O)C(F)(F)F)C(F)(F)F", "mass density": "1415.3 ± 1.1"},
      {"compound": "CC[N+](C)(CCO)CCO.O=S(=O)([N-]S(=O)(=O)C(F)(F)F)C(F)(F)F", "mass density": "1472.8 ± 1.2"}
    ]},
    {"conditions": "347.15 K; 100 kPa; Liquid; Vibrating tube method", "units": {"mass density": "kg/m3"}, "values": [
      {"compound": "C[N+](CCO)(CCO)CCO.O=S(=O)([N-]S(=O)(=O)C(F)(F)F)C(F)(F)F", "mass density": "1523.1 ± 1.2"},
      {"compound": "CC[N+](CCO)(CCO)CCO.O=S(=O)([N-]S(=O)(=O)C(F)(F)F)C(F)(F)F", "mass density": "1487.2 ± 1.2"},
      {"compound": "CCCC[N+](CCO)(CCO)CCO.O=S(=O)([N-]S(=O)(=O)C(F)(F)F)C(F)(F)F", "mass density": "1414.5 ± 1.1"},
      {"compound": "CC[N+](C)(CCO)CCO.O=S(=O)([N-]S(=O)(=O)C(F)(F)F)C(F)(F)F", "mass density": "1472 ± 1.2"}
    ]},
    {"conditions": "348.15 K; 100 kPa; Liquid; Concentric cylinders viscometry", "units": {"viscosity": "mPa·s"}, "values": [
      {"compound": "C[N+](CCO)(CCO)CCO.O=S(=O)([N-]S(=O)(=O)C(F)(F)F)C(F)(F)F", "viscosity": "42.1 ± 1.7"},
      {"compound": "CC[N+](CCO)(CCO)CCO.O=S(=O)([N-]S(=O)(=O)C(F)(F)F)C(F)(F)F", "viscosity": "50.6 ± 2"},
      {"compound": "CCCC[N+](CCO)(CCO)CCO.O=S(=O)([N-]S(=O)(=O)C(F)(F)F)C(F)(F)F", "viscosity": "54.1 ± 2.2"},
      {"compound": "CC[N+](C)(CCO)CCO.O=S(=O)([N-]S(=O)(=O)C(F)(F)F)C(F)(F)F", "viscosity": "28.4 ± 1.1"}
    ]},
    {"conditions": "348.15 K; 100 kPa; Liquid; Vibrating tube method", "units": {"mass density": "kg/m3"}, "values": [
      {"compound": "C[N+](CCO)(CCO)CCO.O=S(=O)([N-]S(=O)(=O)C(F)(F)F)C(F)(F)F", "mass density": "1522.3 ± 1.2"},
      {"compound": "CC[N+](CCO)(CCO)CCO.O=S(=O)([N-]S(=O)(=O)C(F)(F)F)C(F)(F)F", "mass density": "1486.3 ± 1.2"},
      {"compound": "CCCC[N+](CCO)(CCO)CCO.O=S(=O)([N-]S(=O)(=O)C(F)(F)F)C(F)(F)F", "mass density": "1413.6 ± 1.1"},
      {"compound": "CC[N+](C)(CCO)CCO.O=S(=O)([N-]S(=O)(=O)C(F)(F)F)C(F)(F)F", "mass density": "1471.1 ± 1.2"}
    ]},
    {"conditions": "349.15 K; 100 kPa; Liquid; Vibrating tube method", "units": {"mass density": "kg/m3"}, "values": [
      {"compound": "C[N+](CCO)(CCO)CCO.O=S(=O)([N-]S(=O)(=O)C(F)(F)F)C(F)(F)F", "mass density": "1521.4 ± 1.2"},
      {"compound": "CC[N+](CCO)(CCO)CCO.O=S(=O)([N-]S(=O)(=O)C(F)(F)F)C(F)(F)F", "mass density": "1485.5 ± 1.2"},
      {"compound": "CCCC[N+](CCO)(CCO)CCO.O=S(=O)([N-]S(=O)(=O)C(F)(F)F)C(F)(F)F", "mass density": "1412.8 ± 1.1"},
      {"compound": "CC[N+](C)(CCO)CCO.O=S(=O)([N-]S(=O)(=O)C(F)(F)F)C(F)(F)F", "mass density": "1470.3 ± 1.2"}
    ]},
    {"conditions": "350.15 K; 100 kPa; Liquid; Vibrating tube method", "units": {"mass density": "kg/m3"}, "values": [
      {"compound": "C[N+](CCO)(CCO)CCO.O=S(=O)([N-]S(=O)(=O)C(F)(F)F)C(F)(F)F", "mass density": "1520.5 ± 1.2"},
      {"compound": "CC[N+](CCO)(CCO)CCO.O=S(=O)([N-]S(=O)(=O)C(F)(F)F)C(F)(F)F", "mass density": "1484.6 ± 1.2"},
      {"compound": "CCCC[N+](CCO)(CCO)CCO.O=S(=O)([N-]S(=O)(=O)C(F)(F)F)C(F)(F)F", "mass density": "1411.9 ± 1.1"},
      {"compound": "CC[N+](C)(CCO)CCO.O=S(=O)([N-]S(=O)(=O)C(F)(F)F)C(F)(F)F", "mass density": "1469.4 ± 1.2"}
    ]},
    {"conditions": "351.15 K; 100 kPa; Liquid; Vibrating tube method", "units": {"mass density": "kg/m3"}, "values": [
      {"compound": "C[N+](CCO)(CCO)CCO.O=S(=O)([N-]S(=O)(=O)C(F)(F)F)C(F)(F)F", "mass density": "1519.7 ± 1.2"},
      {"compound": "CC[N+](CCO)(CCO)CCO.O=S(=O)([N-]S(=O)(=O)C(F)(F)F)C(F)(F)F", "mass density": "1483.8 ± 1.2"},
      {"compound": "CCCC[N+](CCO)(CCO)CCO.O=S(=O)([N-]S(=O)(=O)C(F)(F)F)C(F)(F)F", "mass density": "1411.1 ± 1.1"},
      {"compound": "CC[N+](C)(CCO)CCO.O=S(=O)([N-]S(=O)(=O)C(F)(F)F)C(F)(F)F", "mass density": "1468.6 ± 1.2"}
    ]},
    {"conditions": "352.15 K; 100 kPa; Liquid; Vibrating tube method", "units": {"mass density": "kg/m3"}, "values": [
      {"compound": "C[N+](CCO)(CCO)CCO.O=S(=O)([N-]S(=O)(=O)C(F)(F)F)C(F)(F)F", "mass density": "1518.8 ± 1.2"},
      {"compound": "CC[N+](CCO)(CCO)CCO.O=S(=O)([N-]S(=O)(=O)C(F)(F)F)C(F)(F)F", "mass density": "1483 ± 1.2"},
      {"compound": "CCCC[N+](CCO)(CCO)CCO.O=S(=O)([N-]S(=O)(=O)C(F)(F)F)C(F)(F)F", "mass density": "1410.3 ± 1.1"},
      {"compound": "CC[N+](C)(CCO)CCO.O=S(=O)([N-]S(=O)(=O)C(F)(F)F)C(F)(F)F", "mass density": "1467.7 ± 1.2"}
    ]},
    {"conditions": "353.15 K; 100 kPa; Liquid; Concentric cylinders viscometry", "units": {"viscosity": "mPa·s"}, "values": [
      {"compound": "C[N+](CCO)(CCO)CCO.O=S(=O)([N-]S(=O)(=O)C(F)(F)F)C(F)(F)F", "viscosity": "35.6 ± 1.4"},
      {"compound": "CC[N+](CCO)(CCO)CCO.O=S(=O)([N-]S(=O)(=O)C(F)(F)F)C(F)(F)F", "viscosity": "41.9 ± 1.7"},
      {"compound": "CCCC[N+](CCO)(CCO)CCO.O=S(=O)([N-]S(=O)(=O)C(F)(F)F)C(F)(F)F", "viscosity": "44.7 ± 1.8"},
      {"compound": "CC[N+](C)(CCO)CCO.O=S(=O)([N-]S(=O)(=O)C(F)(F)F)C(F)(F)F", "viscosity": "24.3 ± 1"}
    ]},
    {"conditions": "353.15 K; 100 kPa; Liquid; Vibrating tube method", "units": {"mass density": "kg/m3"}, "values": [
      {"compound": "C[N+](CCO)(CCO)CCO.O=S(=O)([N-]S(=O)(=O)C(F)(F)F)C(F)(F)F", "mass density": "1518 ± 1.2"}
    ]}
  ]
}
